# Assays:
# [1] = Water solubility; type: physicochemical
# [2] = test system: Sarcoma-180; assay: Anti-tumor action on subcutaneous Sarcoma-180 in mice; type: in vivo, Swiss albino mice (Charles River CD-1 strain); set-up: ED: unit not given here; details: for IT (therapeutic index LD10/ED90): mice
# Procedure: On the eleventh day (tumer age 14 days) the test and control mice were sacrificed, the tumor or tumorous area was cut out, weighed and stored in formaldehyde for histological examination. At the same time the liver, kidneys, spleen, heart, and a piece of the small intestine were collected and stored in formaldehyde for histopathological evaluation of the effect of the drugs on these tissues and organs.
# The anti-neoplastic action of the drugs was assayed by comparison of the tumor weight present in treated and control animals and expressed as the percent of controls average weight (T/C%). The presence of malignancy in the tumors or tumor-areas of the treated animals was verified by histological examination.
# The reabsorption of tissue, formed between the inocculation of the cancer cells and the onset of the treatment is relatively slow. Treated animals even under strong cancerostatic action of the drugs show a small quantity (100-200 mg) of tissue in the area where the tumor cells where deposited. It is therefore difficult to tell the nature of these residual tissues by macroscopic examination. Most of these residual "lumps" are made up of connective tissues and necrotic, scar tissues. If it were regarded as neoplasia without histological examination the T/C% calculation would give an erratic result in the evaluation of the anti-cancer action of the compound. Histological examination of these "lumps" therefore is exceedingly important in order to arrive at a valid evaluation of the effectiveness of the drugs especially in short-term experiments (10 days) as carried out in the present assays.
# [3] = in vivo; details: mouse, in vivo, ip
# Procedure: (§1) The biological effects of methylglyoxal maleimide ("A") and methylglyoxal glutaconic imide ("B") were determined by tests on normal (non-tumorous) and subcutaneous Sarcoma-180 tumor-bearing mice. […] The compounds were administered by intraperitoneal route and the values were calculated by standard methods (Goldin A., in Meth.Can.Res. 4, p. 193, 1968).
# (§2) A thirty-day survival test was carried out with normal mice to determine any possible delayed toxicity.
# (§3) The test solutions were prepared by dissolving either 38.72 mg of methylglyoxal maleimide ("A") or 5278 mg of methylglyoxal glutaconic imide ("B") in 100 ml of physiological saline. The pH of the solution was adjusted to 6.0, sterilized on Millipore filtration and stored in sterile vials at about 10° C. One […] of such solutions contained 0.387 mg of compound "A" or 52.78 mg of compound "B", respectively and when injected into mice of an average weight of 26 grams the dose was equivalent to 14.884 mg/kg of the compound "A" and 2030 mg/kg of the compound "B".
# (§4) Normal, non-tumor-bearing mice of the same strain, sex and weight were also randomized and placed in separate test groups.
# (§5) The compositions were injected at different dose levels, each dose being double the next-lower dose, with three test groups (30 mice) for each dose level. The injection was effected intraperitoneally into normal and tumor-bearing mice, starting on the fourth day after the inocculation with cancer, once daily for ten consecutive days. […] A proper number of normal and tumorous mice was treated with saline solution in the same manner, frequency and volume as a control experiment. The body weight change and mortality (acute toxicity) were recorded daily.
# (§6) A number of normal animals treated with the drugs in the same manner as the tumorous ones were also sacrificed on the eleventh day, and their organs were collected for histological examination.
# [4] = test system: normal (non-tumorous) mice; assay: Acute toxicity (mortality), body weight change and 30-day survival in normal mice; details: for LD10 (maximum tolerated dose at 10% lethality) / effect of reduction in the total volume of injection on mortality: mice; for LD10 (maximum tolerated dose at 10% lethality) / 30 day mortality rate of all treated nontumorous animals (compared with mortality in 10 days): i.p. daily for 10 days; for effect of reduction in the total volume of injection on mortality: i.p., volume below 1.0 ml/animal/day; for 30 day mortality rate of all treated nontumorous animals (compared with mortality in 10 days): 30 day observation
# Procedure: as §1, §2, §3, §4, §5, §6
# [5] = in vivo; details: mouse, in vivo, ip; remark: listed apart in the source
# Procedure: as §1, §3
# (§7) Random-bred Swiss albino mice (Charles River CD-1 strain, average weight 26±3 g, females) were inocculated with 25 million Sarcoma-180 cells (in about 0.25 ml of ascitic fluid, cell age 7 days) on the right scapular region. The animals were randomized on the 4th day after the inocculation with the cancer cells, placed in separate test groups of 10 mice per group (5 mice/cage) and weighed.
# (§8) The compositions were injected at different dose levels, each dose being double the next-lower dose, with three test groups (30 mice) for each dose level. The injection was effected intraperitoneally into normal and tumor-bearing mice, starting on the fourth day after the inocculation with cancer, once daily for ten consecutive days. The volume of the injection at each dose level was brought up to 1.0 ml with saline. A proper number of normal and tumorous mice was treated with saline solution in the same manner, frequency and volume as a control experiment. The body weight change and mortality (acute toxicity) were recorded daily.
# [6] = test system: Sarcoma-180 tumor-bearing mice; assay: in vivo
# Procedure: as §1, §3, §7, §8
# [7] = test system: skin graft; assay: Skin graft rejection (orthotopic skin heterografts white to gray and gray to white); type: in vivo, Swiss albino mice and C3HStCrl mice; details: 3.744 mg/kg i.p. daily, cumulative; for rejection on 31-40 days: g to w line; for rejection on 26-30 days: w to g line
# Description: Skin grafting in mice is well established and this tissue is among the most sensitive indicators of histocompability differences. The retnetion of skin graft between genetically non-related mice is an excellent method of evaluating activity against rejection mechanism. p As the rejection of transplants is associated with antigen formation against the incompatible proteins of the donated tissue, a drug which specifically represses the protein synthesis without affecting the intermediary metabolism of the host is a potential candidate for combatting rejection.
# The experiments described here were performed on random-bred Swiss albino mice (white, females, average body weight 26±3 g; Charles River CD-1-strain) and inbred C3HStCrl mice (cinnamon gray, females, average body weight 20±2 grams; Charles River pedigreed breeders from L. C. Strong Foundation) and othotopic skin transplants were made in both ways, that is, white to gray and gray to white.
# Standard transplantation technique (R. E. Billingham, W. K. Silvers in Transplantation of tissues and cells, The Wistar Institute Press, Philadelphia, p. 8, 1961) was utilized: From nembutal anesthetized animals 4-6 "pinch"-grafts (full thickness, 3-4 mm in diameter) of the close clipped and sterilized skin were collected from the thorax and immediately transplanted. The grafts were positioned in the "beds" (in place of the pinch-graft) and were held in position by tulle gras (vaseline-impregnatedgauze) and by plaster-of-Paris impregnated bandage around the thorax.
# The bandages were removed on the 6-9th day after the transplantation and the future development of the grafts was followed by macroscopical observations.
# Positive and negative controls were made simultaneously for skin rejection:
# a. Four positive control isografts (white to white, and gray to gray) were made. […] On the 21-28th day the fur-bearing skin had regenerated a completely new crop of hairs indistinguishable from the original population with respect to colors, density and orientation.
# b. Four negative control heterografts (white to gray and gray to white) were made without treatment. […] On the 10-12th day after transplantation intravascular thrombies, capillary ruptures, extravasation of blood were the first signs that the grafts were heading for necrosis and rejection which occurred on the 18-25th day.
# The heterografts with treatment followed three courses with methylglyoxal-maleimide (at dose level 3.744 mg/kg/animal/day) administered intraperitoneally in a total amount of 1.0 ml/animal/day.
# i. Animals were treated for 10 days with the composition before grafts were exchanged and treatment was discontinued on the day of transplantation.
# ii. Animals were not treated before the grafts were exchanged but the treatment started on the day of transplantation and continued for 10 days.
# iii. Animals were treated for 10 days with the drug before the grafts were exchanged and the treatment schedule was continued for 25 days after the transplantation.
# [8] = (ii) post graft treatment for 10 days
# [9] = (iii) pretreatment for 10 days and post graft treatment for 25 days
# [10] = tumorous mice, 0.234 mg/kg i.p. daily for 10 days
# [11] = tumorous mice, 0.468 mg/kg i.p. daily for 10 days
# [12] = tumorous mice, 0.936 mg/kg i.p. daily for 10 days
# [13] = tumorous mice, 1.872 mg/kg i.p. daily for 10 days
# [14] = tumorous mice, 3.744 mg/kg i.p. daily for 10 days
# [15] = tumorous mice, 7.488 mg/kg i.p. daily for 10 days
compound,measurement,setting,value
"CC(=O)C(O)N1C(=O)CCC1=O (centres unmarked) [Methylglyoxal-succinimide, N-(2-keto-propane-1ol)-2,5diketo pyrrolidine]",water solubility,[1],high
"CC(=O)C(O)N1C(=O)C=CCC1=O (centres unmarked) [Methylglyoxal-glutaconic imide, N'-(2-keto-propane-1-ol)-2,6-dioxopyridine]",ED90,"[2]; Mus musculus, Sarcoma-180, ip, 240 h, read-out: ED90 (effective dose at 90% effectiveness)",210 mg/kg
same,IT (therapeutic index LD10/ED90),[2]; i.p. daily for 10 days,6.23
same,ED,"[2]; tumorous mice, 63.5 mg/kg i.p. daily for 10 days",> 5
same,ED,"[2]; tumorous mice, 127 mg/kg i.p. daily for 10 days",55
same,ED,"[2]; tumorous mice, 254 mg/kg i.p. daily for 10 days",100
same,ED,"[2]; tumorous mice, 508 mg/kg i.p. daily for 10 days",100
same,ED,"[2]; tumorous mice, 1016 mg/kg i.p. daily for 10 days",100
same,mortality at 240 h,[3]; 63.5 mg/kg,0%
same,mortality at 240 h,[3]; 127 mg/kg,0%
same,mortality at 240 h,[3]; 254 mg/kg,0%
same,mortality at 240 h,[3]; 508 mg/kg,0%
same,mortality at 240 h,[3]; 1016 mg/kg,0%
same,mortality at 240 h,[3]; 2032 mg/kg,100%
same,LD10 (maximum tolerated dose at 10% lethality),[4],1310 mg;kg
same,effect of reduction in the total volume of injection on mortality,[4],increase in mortality
same,Δ body wt,"[4]; mouse, in vivo, ip, 63.5 mg/kg",+0.55
same,Δ body wt,"[4]; mouse, in vivo, ip, 127 mg/kg",+0.3
same,Δ body wt,"[4]; mouse, in vivo, ip, 254 mg/kg",+0.15
same,Δ body wt,"[4]; mouse, in vivo, ip, 508 mg/kg",-0.1
same,Δ body wt,"[4]; mouse, in vivo, ip, 1016 mg/kg",-0.1
same,Δ body wt,"[4]; mouse, in vivo, ip, 1524 mg/kg",-0.4
same,30 day mortality rate of all treated nontumorous animals (compared with mortality in 10 days),[4]; normal mice,identical
same,mortality at 240 h,[5]; 63.5 mg/kg,0%
same,mortality at 240 h,[5]; 127 mg/kg,0%
same,mortality at 240 h,[5]; 254 mg/kg,0%
same,mortality at 240 h,[5]; 508 mg/kg,0%
same,mortality at 240 h,[5]; 1016 mg/kg,0%
same,mortality at 240 h,[5]; 2032 mg/kg,100%
same,Δ body wt,"[6]; mouse, in vivo, ip, 63.5 mg/kg",+0.6
same,Δ body wt,"[6]; mouse, in vivo, ip, 127 mg/kg",+0.35
same,Δ body wt,"[6]; mouse, in vivo, ip, 254 mg/kg",+0.4
same,Δ body wt,"[6]; mouse, in vivo, ip, 508 mg/kg",+0.1
same,Δ body wt,"[6]; mouse, in vivo, ip, 1016 mg/kg",-0.3
"CC(=O)C(O)N1C(=O)C=CC1=O (centres unmarked) [Methylglyoxal-maleimide, N'-(2-keto-propane-1-ol)-2,5-dioxopyrroline-3-ene]",rejection on 31-40 days,[7]; (i) pretreatment for 10 days,100%
same,rejection on 26-30 days,[7]; (i) pretreatment for 10 days,30%
same,rejection on 31-40 days,[7]; [8],60%
same,rejection on 26-30 days,[7]; [8],10%
same,rejection on 31-40 days,[7]; [9],10%
same,rejection on 26-30 days,[7]; [9],No rejection
same,ED99,"[2]; Mus musculus, Sarcoma-180, ip, 240 h, tumorous mice, i.p. daily for 10 days",1.15 mg/kg
same,IT (therapeutic index LD10/ED90),[2]; i.p. daily for 10 days,7.46
same,ED%,[2]; [10],> 0.5%
same,ED%,[2]; [11],~ 1%
same,ED%,[2]; [12],60%
same,ED%,[2]; [13],100%
same,ED%,[2]; [14],100%
same,ED%,[2]; [15],100%
same,mortality at 240 h,[3]; 0.234 mg/kg,0%
same,mortality at 240 h,[3]; 0.468 mg/kg,0%
same,mortality at 240 h,[3]; 0.936 mg/kg,0%
same,mortality at 240 h,[3]; 1.872 mg/kg,0%
same,mortality at 240 h,[3]; 3.744 mg/kg,0%
same,mortality at 240 h,[3]; 7.488 mg/kg,0%
same,mortality at 240 h,[3]; 14.896 mg/kg,100%
same,LD10 (maximum tolerated dose at 10% lethality),[4],8.59 mg/kg
same,effect of reduction in the total volume of injection on mortality,[4],increase in mortality
same,Δ body wt,"[4]; normal mice, 0.234 mg/kg i.p. daily for 10 days",+1.0
same,Δ body wt,"[4]; normal mice, 0.468 mg/kg i.p. daily for 10 days",+0.7
same,Δ body wt,"[4]; normal mice, 0.936 mg/kg i.p. daily for 10 days",+0.46
same,Δ body wt,"[4]; normal mice, 1.872 mg/kg i.p. daily for 10 days",+0.39
same,Δ body wt,"[4]; normal mice, 3.744 mg/kg i.p. daily for 10 days",+0.1
same,Δ body wt,"[4]; normal mice, 7.488 mg/kg i.p. daily for 10 days",-0.2
same,30 day mortality rate of all treated nontumorous animals (compared with mortality in 10 days),[4]; normal mice,identical
same,mortality at 240 h,[5]; 0.234 mg/kg,0%
same,mortality at 240 h,[5]; 0.468 mg/kg,0%
same,mortality at 240 h,[5]; 0.936 mg/kg,0%
same,mortality at 240 h,[5]; 1.872 mg/kg,0%
same,mortality at 240 h,[5]; 3.744 mg/kg,0%
same,mortality at 240 h,[5]; 7.488 mg/kg,0%
same,mortality at 240 h,[5]; 14.896 mg/kg,100%
same,Δ body wt,[6]; [10],+0.96
same,Δ body wt,[6]; [11],+0.65
same,Δ body wt,[6]; [12],+0.6
same,Δ body wt,[6]; [13],+0.4
same,Δ body wt,[6]; [14],+0.3
same,Δ body wt,[6]; [15],+0.1
